Test results taken from ChEMBL document CHEMBL1136828, “Macrocyclic inhibitors of the bacterial cell wall biosynthesis enzyme MurD” (Bioorg Med Chem Lett, 2003).
pIC50: −log10 of the molar value.

Assay: Inhibitory activity against enzyme MurD isolated from Escherichia coli

Structure (SMILES) | pIC50
C[C@@H]1NC(=O)CCCCCCC[C@H](C(=O)O)NC(=O)[C@H](C)NC1=O | 5.82
C[C@@H]1NC(=O)[C@H](COC(C)(C)C)NC(=O)CCCCCC[C@H](C(=O)O)NC1=O | 5.72
C[C@@H]1NC(=O)[C@H](COC(C)(C)C)NC(=O)CCCCCC[C@@H](C(=O)O)NC1=O | 5.05
C[C@@H]1NC(=O)CCCCCC[C@H](C(=O)O)NC(=O)[C@H](C)NC1=O | 5.82

Second part, the compound after the results:

pIC50 | Structure (SMILES)
5.64 | C[C@@H]1NC(=O)[C@H](CO)NC(=O)CCCCCC[C@@H](C(=O)O)NC1=O
5.49 | C[C@@H]1NC(=O)CCCCCCC[C@@H](C(=O)O)NC(=O)[C@H](C)NC1=O
6.15 | C[C@@H]1NC(=O)[C@H](CO)NC(=O)CCCCCC[C@H](C(=O)O)NC1=O
5.29 | C[C@@H]1NC(=O)CCCCCC[C@@H](C(=O)O)NC(=O)[C@H](C)NC1=O
